This is an account of results in patent US20260007652A1, “Selective Modulators of AhR-Regulated Transcription and Method for Using Such Modulators to Treat Cancer” (OREGON STATE UNIVERSITY, priority 2022, published 2026).

One data set concerns AhR. The experiment in a line: Xenobiotic response element (XRE) driven reporter in Hepa-1 cells, AhR activation. Type of data set: cell-based, mouse. How it is done: FIGS. 69A-69D show representative 11-Cl-BBQ analogs (848 and 849) as non-classical AHR ligands. (A) Stability of AHR protein in the H460 whole cell lysate in the presence or absence of 11-Cl-BBQ (5 μM), PRXS-848 (10 μM), and PRXS-849 (10 μM) at the indicated temperatures; GADPH was used as a loading control. (B) Localization of AHR protein in the H460 treated with 11-Cl-BBQ (100 nM), PRXS-848 (250 nM), PRXS-849 (250 nM), or vehicle control (0.1% DMSO) for two hours; top horizontal panel: AHR protein staining using an AHR-specific antibody conjugated with FITC (green) fluorophore; middle panel: DAPI staining; bottle panel: overlaid images from the top panel and the middle panel in the same column. (C) AHR activation (measured by XRE-luciferase reporter assay in Hepa1 cells) of the parental lead 11-Cl-BBQ and analogs PRXS-848 and PRXS-849 at the indicated concentrations for 16 hours. (D) AHR activation of 11-Cl-BBQ cotreated with a known AHR antagonist CH223191 (1 μM) or 11-Cl-BBQ analogs PRXS-848 and PRXS-849 at the indicated concentrations for 16 hours.
FIG. 76 presents representative AhR compounds (BBQ analogs) of the invention effective for activation of AhR transcription. Activation values greater than 1 at 100 nM were considered a hit with nanomolar affinity to promote AhR activity and synergize with the identified compounds from the synergy screens. Referring to FIG. 76, Fold@ 1 nM refers to activation of AhR transcription at 1 nM; Fold@100 nM refers to activation of AbR transcription at 100 nM; and Fold rel @ 100 refers to relative activation at 100 nM compared to parental compound, 11-Cl-BBQ. The representative AhR ligand compounds presented in FIG. 76 activate AhR transcription and therefore are useful as anti-cancer agents, either alone or in combination with the synergizing compounds (and chemotherapeutic agents) described herein.
was identified as a top hit compound based on its potent (>50% inhibition at 0.1 μM), and selective activity against AhR WT cells versus AhR KO cells (>70% difference between WT and KO cells at 10 μM) (FIG. 11). […] This confirmed Analog 523 activates AhR-mediated transcription and functions as an AhR ligand.

The test system of another data set is HepG2 cells. The experiment in a line: Colony forming assay, HepG2 cells. Type of data set: cell-based, human. As to conditions: alone. How it is done: FIGS. 75A-75C compare the effects of 11-Cl-BBQ and Evoxine in hepatoma: A) Mouse Hepa-1 cells were treated with 11-Cl-BBQ, Evoxine either alone or in combination for 48 hours before assessing cell viability using Cell-Titer Glo Viability Assay. B) Hepa-1 cells treated with Evoxine, 11-Cl-BBQ either alone or in combination for 48 hours with induction of cell death measured by Annexin-V staining and detection by flow cytometry. C) Colony forming assay of HepG2 human hepatocellular carcinoma cells seeded at 300 cell/well in a 24-well plate before treatment with 11-Cl-BBQ, Evoxine either alone or in combination at the indicated concentrations for two weeks, followed by fixation and staining with methylene blue. Quantitation of colonies is shown on the right.
Cells were seeded at a density of 500 cell/well in triplicate in 6-well plates, and the following day, cells were treated with compounds and allowed to incubate for 2-3 weeks before fixation with 50% ethanol/water solution containing 0.1% methylene blue overnight. Colonies were counted manually, or with OpenCFU colony counting software, Images were acquired on a ChemiDoc imaging instrument.

The next data set deals with cancer cell line. The experiment in a line: Cell viability of combinations of AhR ligand and synergizer (FIGS. 51, 52). Type of data set: cell-based. To be noted: for cell viability, monotreatments: alone (FIG. 51); for cell viability, mono-applications: alone (FIG. 52). As for the experimental part: FIG. 51 provides data from cancer cell line trials using 11-Cl-BBQ alone, Evoxine alone, Citropten alone, and combinations comprising 11-Cl-BBQ and Citropten and 11-Cl-BBQ and Evoxine. […] The decrease in cell viability was more than additive. Specifically, for Evoxine in combination with Analog 523, the reduction in cell viability was: 31% at 1 μM; 41% at 3 μM; and 42% at 10 μM. For Citropten in combination with Analog 523, the reduction in cell viability was: 16% at 1 μM; 34% at 3 μM; and 43% at 10

The subject of another data set is MDA-MB-468 cells. The experiment in a line: Annexin-V apoptosis assay, MDA-MB-468 cells. As to conditions: alone. Type of data set: cell-based, human. How it is done:
FIGS. 72A-72C presents the characterization of combinations on TNBC cell viability and cell death. Quantitation of Annexin-V staining of MDA-MB-468 cells treated with either 10 μM evoxine, 10 μM citropten, 0.25 μM 11-Cl-BBQ, or corresponding combinations for 72 hours (A and B, respectively). Quantifications represent averages of three independent experiments. C) Colony forming assay of MDA-MB-468 AhR-expressing and AhR KO cells treated with 100 nM Evoxine, 500 nM Citropten, […] 11-Cl-BBQ, or combinations of each compound with 11-Cl-BBQ.
Annexin-V staining was performed 48 hours post-treatment by harvesting cells (floating and attached) with trypsin, followed by addition of serum-containing media, and two washes with ice-cold PBS. Cells were stained with Annexin-V-PerCP conjugates (eBioscience, Waltham, MA, USA) for 15 minutes on ice before washing out residual stain and resuspending in 300 μL of binding buffer. 10,000 events were collected per sample. Data was acquired with a CytoFLEX S flow cytometer (Beckman Coulter, Brea, CA), and analyzed using the CytExpert software (Beckman Coulter).

The test system of another data set is p53. Kind of data set: Western blot of p53 protein levels in H460 cells. Type of data set: cell-based, human. As for the experimental part: Whole cell lysate was prepared in RIPA lysis buffer with 1× Laemmli buffer, then denatured by heating at 100° C. for 5 minutes. Denatured proteins were separated in SDS-PAGE gel and transferred onto PVDF membrane. The PVDF membrane was incubated in TBST with 5% nonfat dry milk for one hour at room temperature prior to incubating with primary antibody of interest overnight at 4° C. with gentle rotation. Appropriate horse radish peroxidase conjugated secondary antibody was applied for one hour at room temperature. Signal was developed by applying SuperSignal West Pico chemiluminescence substrate and captured using the ChemiDoc imaging instrument. Primary antibodies used in this study: anti-AHR antibody (BML-SA210-Enzo Biochem, Farmingdale, NY), anti-p27^Kip1 antibody (610242-BD Biosciences), anti-p53 antibody (DO-1 sc-126-Santa Cruz Biotechnology, Dallas, TX), anti-p21 antibody (2947S-Cell Signaling Technology, Danvers, MA), and anti-GAPDH antibody (sc-36502, Santa Cruz).

In data set [1] the test system is H460 cells. The experiment in a line: Zebrafish tumor xenograft assay with pre-treated H460 cells. Type of data set: in vivo. To be noted: cells exposed to 1 μM or 5 μM for 72 hours, washed out; days 1 and 4 post-injection; AhR-expressing cells. As for the experimental part:
H460 AHR wildtype (CR-V2) and knockout (CR-AHR3) cells were treated with 11-Cl-BBQ (1 and 5 μM) or 0.1% DMSO as vehicle control for 72 hours in RPMI media supplemented with 1% FBS. Cells were trypsinized, dyed with cell viable dye CM-Di1 (Thermofisher), and micro-injected into zebrafish embryos. The growth cancer xenografts were monitored at one day and four days post injection. Zebrafish were housed at the Sinnhuber Aquatic Research Laboratory at Oregon State University (Corvallis, OR, USA), and experiments were conducted according to Institutional Animal Care and Use Committee protocols.

Data set [2] concerns H460 cells. Kind of data set: Cell cycle analysis, H460 cells. Type of data set: cell-based, human. To be noted: 2.5 μM, 24 hours. How it is done: Cells were harvested by applying trypsin-EDTA then washed twice with phosphate-buffered saline (PBS) solution, fixed with 70% ethanol for 15 minutes at room temperature and kept at −20° C. overnight. Fixed samples were washed twice with PBS and stained with Hoechst 33258 (Invitrogen, Carlsbad, CA) at the final concentration of 1 μg/ml in the 0.1% Triton X-100/PBS for 20 minutes at room temperature. DNA content was analyzed by flow cytometer for 10,000 cells per sample, singlets population was selected for further analysis and cell cycle was assigned by fitting the DNA content into Dean-Jett-Fox model using FlowJo software.

Data set [3] has as its system H460 cells. The experiment in a line: Colony forming assay, H460 cells. Type of data set: cell-based, human. As to conditions: 0.1-10 µM, 14 days. How it is done: H460 cells were seeded in 6-well plates at a density of 200 cell per well in complete growth media. 11-Cl-BBQ or DMSO were added the following day as indicated concentrations for two weeks in 1% FBS RMPI media, media and treatments were replenished twice a week. Cell colonies were fixed and stained with methylene blue in 50% ethanol solution overnight. Pictures of cell colonies were captured using the ChemiDoc imaging instrument, and quantified using OpenCFU software.

Data set [4] in a line: Dose studies in mice, serum concentration. Type of data set: in vivo, mouse.
In data set [5] the test system is H460 cells. The experiment in a line: Senescence-associated beta-galactosidase staining, H460 cells. Type of data set: cell-based, human. How it is done:
H460 cells were seeded at 2×10^5 cells/well in 6-well plate overnight and treated with indicated compounds for 5 days. Media and treatments were refreshed on the […]. Cells were stained for senescence-associated β-galactosidase (SA-βgal) using 5-dodecanoylaminofluorescein di-β-D-galactopyranoside (C12FDG). Briefly, media were aspirated and replaced with fresh media containing 0.1 μM bafilomycin A1 (Calbiochem) and incubated for 1 hour in cell culture incubator. C12FDG (Setare Biotech) was added with a final concentration of 33 μM and incubated for another hour. Fluorescent signal was recorded using CytoFlex S cytometer for 10,000 cells per sample.

Data set [6] has as its system H460 cells. The experiment in a line: Annexin V staining, H460 cells. Type of data set: cell-based, human. As to conditions: 1 and 10 μM, 72 hours. How it is done: […] Cells were stained with Annexin-V-PerCP conjugates (eBioscience, Waltham, MA, USA) for 15 minutes on ice before washing out residual stain and resuspending in 300 μL of binding buffer. 10,000 events were collected per sample. Data was acquired with a CytoFLEX S flow cytometer (Beckman Coulter, Brea, CA), and analyzed using the CytExpert software (Beckman Coulter).

Another data set concerns lung cancer cells. The experiment in a line: Viability of lung cancer cell lines (CellTiter Glo). Type of data set: cell-based, human. To be noted: 10 nM to 10 μM, 72 hours. How it is done:
Cancer cells were seeded in 96-well plates at a density of 3,000 cells per well in their optimal culture medium supplemented with 1% FBS overnight, then compounds were added at indicated concentrations and incubated for 72 hours; otherwise, different treatment times will be specified. Cell viability was measured using the ATP-based CellTiter Glo assay (Promega-Madison, WI) following the manufacturer's protocol. Luminescent signals were recorded using the Tropix TR717 microplate luminometer. The viability of cultures following each treatment was normalized to vehicle treatment (0.1% DMSO (v/v)).
Background: ATP-based viability assays read luminescence as a measure of living cells.

Each structure is given as a SMILES string.

In the case of `COC(=O)c1ccc2nc(-c3cccc4ccccc34)n(C(=O)c3ccc(F)c(F)c3)c2c1` [PRXS-849], the “activation of AhR transcription (FIG. 76)” value with AhR was “did not activate AhR”.
In the case of `COc1c2ccoc2nc2c(OC)c(OC[C@@H](O)C(C)(C)O)ccc12` [Evoxine], in the data set with HepG2 cells (2.5 μM), the HepG2 colony formation result is “little effect on colony formation inhibition”. In the data set with cancer cell line, the “cell viability, monotreatments” value was “little effect” and the “cell viability, mono-applications” value is recorded as “largely ineffective in reducing cell viability”. For the same molecule, the “apoptotic response (Annexin-V staining)” value in the data set with MDA-MB-468 cells (10 μM) is 0.5%.
Turning to `Clc1cc2c(cc1Cl)Oc1cc(Cl)c(Cl)cc1O2` [TCDD, reference compound], the “expression of p53 protein” value in the data set with p53 (TCDD 30 nM) is reported as “not altered”.
On to `O=c1c2cccc3cccc(c32)c2nc3cc(Cl)ccc3n12` [Analog 11-Cl-BBQ], for which, in the data set with HepG2 cells (10 μM), the HepG2 colony formation result is on record as “little effect on colony formation inhibition”. For the same molecule, the “growth of cancer cell xenografts” value in the data set on H460 cells [1] is “significantly lower growth”. For the same molecule, in the data set on p53 (5 μM, from 4 h, further at 6 and 9 h), the p53 protein levels result was “increased p53 protein levels”. In addition, the “cells in S-phase” value in the data set with H460 cells [2] (vehicle 35%) amounted to 15%. The “cells in G1 phase” value in the data set with H460 cells [2] (vehicle 45%) is listed as greater than 70%. In the data set on H460 cells [3], the “colony formation of AhR-expressing H460 cells” value was “strongly inhibited colony formation”. Also, the “concentration detected in mouse serum” value was “up to 1.6 μM” in data set [4] (2 mg/Kg intravenous administration) and 3 µM in data set [4] (8 mg/Kg oral administration). In addition, the “cell viability, monotreatments” value with cancer cell line is “little effect”. For the same molecule, in the data set with MDA-MB-468 cells (0.25 μM), the “apoptotic response (Annexin-V staining)” value amounted to 7.3%. Besides, the SA-β-gal expression result with H460 cells [5] (2.5 μM for 120 h, AhR-dependent) is “significant increase in SA-β-gal expression”. Besides, the “Annexin V staining (cell death)” value in the data set with H460 cells [6] is “negative for Annexin V staining”. In the data set with lung cancer cells, the “growth of lung cancer cells” value is listed as “decreased the growth of lung cancer cells in a dose-dependent manner”.
In the case of `COC(=O)c1ccc2c(c1)nc(-c1cccc3ccccc13)n2C(=O)c1ccc(F)c(F)c1` [PRXS-848], the “activation of AhR transcription (FIG. 76)” value in the data set with AhR is “did not activate AhR”.
With `COc1cc(OC)c2ccc(=O)oc2c1` [Citropten, citropten], in the data set with cancer cell line, the “cell viability, monotreatments” value is “little effect” and the “cell viability, mono-applications” value is “largely ineffective in reducing cell viability”. In the data set with MDA-MB-468 cells (10 μM), the “apoptotic response (Annexin-V staining)” value was 2.7%.
For the molecule `COc1cccc2c1C(=O)c1c(O)c3c(c(O)c1C2=O)C[C@@](O)(C(=O)CO)C[C@@H]3O[C@H]1C[C@H](N)[C@H](O)[C@H](C)O1` [doxorubicin, reference compound], the SA-β-gal expression result in the data set with H460 cells [5] (Dox 50 nM, 5 days) was “induced SA-β-gal expression independent of the AhR status”.
